Several values for one entry are separate records, joined by “and”; a condition that tells them apart may be missing. Equal entries are not always repeated.
Experiments:
[1] = molecular target: viral HIV protease (Human immunodeficiency virus type 1 group M subtype B, UniProt P04585); settings: cited from earlier work
[2] = test system: Mycobacterium tuberculosis; settings: in vitro; cited from earlier work
[3] = molecular target: rat liver acyl-CoA synthetase; settings: read-out: 50% inhibition of rat liver acyl-CoA synthetase; cited from earlier work
[4] = test system: Raji cells; settings: cited from earlier work
[5] = test system: β-Oxidation of (1-14C) palmitic acid in cells; experiment: β-Oxidation assay, isolation of acid soluble products; assay type: cell-based; set-up: unit not given here
Procedure: A 24 well plate with 1 ml per well was prepared with 2.5×10^5 cells /well. The cells were incubated O/N. The next day, a solubilized palmitate solution was prepared. 50 μls of (1−^14C) Palmitic acid was added to a 2 ml centrifuge tube and dried under nitrogen gas. 2 mls of α-CD (α-Cyclodextran)—10 mg/ml in 10 mM Tris were added. This solution was incubated in a 37° C. water bath for 30 minutes. A hot mix was prepared by adding 25 μl of this solution to 2.5 μls of 200 μM Carnitine and 222.5 μl of serum free medium that is used for cells. The cells were then treated with the test compound in triplicate, and incubated. at 37° C. for 60 minutes. The medium was removed and 250 μl of the hot mix were added. The test compound was added again, and further incubated at 37° C. for 60 minutes. The reaction was stopped with 50 μl of 2.6 N HClO4. The contents of the plate were transferred to a 1.5 ml centrifuge tube, and 50 μl of 4N KOH were then added, and the tube incubated in a 60° C. water bath for 30 min. Sodium acetate (1 M, 75 μl) and sulfuric acid (3N, 50 μl) were added to the solution and vortexed. The tube was spun for 7 minutes at 1000 rpm at room temperature. A portion (225 μl) was removed, and the following were added (vortex after each addition, twice at the end): 938 μl of 1:1 Chloroform: Methanol; 468 μl of Chloroform; 281 μl distilled Water. The tubes were spun at 1000 rpm for 5 minutes. The upper phase was removed into a large glass scintillation vial and 5 ml of Budget solvent (scintillation liquid) was added. The tubes were well vortexed. Finally, ^14C was counted for one minute.

For `C/C=C/C/C=C/CCC(=O)[C@H]1O[C@H]1C(N)=O` [cerulenin, (2s, 3R)-2,3-epoxy-4-oxo-7,10 dodecadienoyl amide], the “concentration for inhibition of viral HIV protease” value [1] is listed as 5 mg/mL and the “activity against Mycobacterium tuberculosis” value [2] is listed as “no activity”.

For `CCCC=CCC=CC=CC=NN=NO` [Triacsin C, 1-hydroxy-3-(E, E, E-2′,4′,7′-undecatrienylidine) triazene], the IC50 [3] is given as 8.7 µM and the “concentration causing growth inhibition in Raji cells” value [4] is given as 1.0 µM.

With `CCCCCCCCC1OC(=O)C(O)=C1C(=O)OCC` (stereo not shown) [Compound 1] the Beta oxidation ([5]; 0.04 ug/ml) was 94 and 103 and 120, the Beta oxidation ([5]; 0.19 ug/ml) was 108 and 104 and 113 and the Beta oxidation ([5]; 3.13 ug/ml) was 113 and 109 and 107. The Beta oxidation ([5]; 12.5 ug/ml) was 114 and 107 and 100, the Beta oxidation ([5]; 50 ug/ml) was 54 and 49 and 45 and the Beta oxidation ([5]; .78 ug/ml) was 104 and 106.
